Measured values from patent US6153424A, “Protease-deficient strains of Pichia methanolica” (ZymoGenetics, Inc., priority 1999, dated 2000).

System: P. methanolica cells (strain CBS6515), UV-mutagenized
Assay: Nystatin enrichment for auxotrophic mutants; titering of colony forming units of treated versus control cells
Format: cell-based, Pichia methanolica
Conditions: 1 mg nystatin added to remainder of 500 ml culture (50 ml set aside as control) in minimal broth with 5 g/L ammonium sulfate, 1 additional hour with shaking
Procedure: Large-scale mutagenesis was then carried out using a 2-second UV exposure to provide about 20% killing. Cells were plated at approximately 10^4 cells/plate onto eight YEPD plates that were supplemented with 100 mg/L each of uracil, adenine, and leucine, which were added to supplement the growth of potential auxotrophs having the cognate deficiencies. Following UV exposure the plates were wrapped in foil and incubated overnight at 30° C. The following day the colonies on the plates (~10^5 total) were resuspended in water and washed once with water. An amount of cell suspension sufficient to give an OD600 of 0.1-0.2 was used to inoculate 500 ml of minimal broth made with yeast nitrogen base without amino acids or ammonia, supplemented with 1% glucose and 400 μg/L biotin. The culture was placed in a 2.8 L baffled Bell flask and shaken vigorously overnight at 30° C. The following day the cells had reached an OD600 of ~1.0-2.0. The cells were pelleted and resuspended in 500 ml of minimal broth supplemented with 5 g/L ammonium sulfate. The cell suspension was placed in a 2.8 L baffled Bell flask and shaken vigorously at 30° C. for 6 hours. 50 ml of the culture was set aside in a 250-ml flask as a control, and to the remainder of the culture was added 1 mg nystatin (Sigma Chemical Co., St. Louis, Mo.) to select for auxotrophic mutants (Snow, Nature 211:206-207, 1966). […]

## C[C@@H]1[C@H](O)[C@@H](C)/C=C/C=C/CC/C=C/C=C/C=C/C=C/C(O[C@H]2O[C@H](C)[C@@H](O)[C@H](N)[C@@H]2O)CC2O[C@](O)(CC(O)C(O)CCC(O)CC(O)CC(O)CC(=O)O[C@H]1C)CC(O)C2C(=O)O (stereo partly shown) [nystatin]
  decrease in the number of viable cells (colony forming units) by a factor: 10^4
